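Cells were grown in 96-well plates and exposed to each compound for 48 hours at five concentrations; endpoints were interpolated linearly between bracketing concentrations, or set to the highest concentration if not reached. GI50 = concentration required for 50% inhibition of growth. TGI is the concentration that stops growth completely.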
What was measured:
Assay in all cases: DTP human tumour cell line panel, 48 h
MDA-MB-435 = tested on: MDA-MB-435
SK-MEL-2 melanoma = tested on: SK-MEL-2 melanoma
HCT-116 colon = tested on: HCT-116 colon
NCI-H522 lung = tested on: NCI-H522 lung
SW-620 colon = tested on: SW-620 colon
SK-MEL-28 melanoma = tested on: SK-MEL-28 melanoma
CAKI-1 renal = tested on: CAKI-1 renal
MOLT-4 leukemia = tested on: MOLT-4 leukemia

Structure (SMILES) | GI50 (MDA-MB-435) | TGI (MDA-MB-435) | GI50 (SK-MEL-2 melanoma) | TGI (SK-MEL-2 melanoma) | GI50 (HCT-116 colon) | TGI (HCT-116 colon) | GI50 (NCI-H522 lung) | TGI (NCI-H522 lung) | GI50 (SW-620 colon) | TGI (SW-620 colon) | GI50 (SK-MEL-28 melanoma) | TGI (SK-MEL-28 melanoma) | GI50 (CAKI-1 renal) | TGI (CAKI-1 renal) | GI50 (MOLT-4 leukemia) | TGI (MOLT-4 leukemia)
COc1ccc(C(=O)COC(=O)[C@H](C[Se][Se]C[C@H](NC(=O)c2ccc(Br)cc2F)C(=O)OCC(=O)c2ccc(OC)cc2)NC(=O)c2ccc(Br)cc2F)cc1 | 1510 nM | 5.05 µM | 862 nM | 2.57 µM | 949 nM | 2.78 µM | 660 nM | 2.02 µM | 1.44 µM | 3.89 µM | 1.59 µM | 5.61 µM | 1000 nM | 2.97 µM | 2.63 µM | 17.8 µM
COc1cc(OC)c(/C=C\c2ccnc3ccccc23)c(OC)c1 | – | 1.78 µM | – | 19.4 µM | – | 13.3 µM | – | 18 µM | – | 20.8 µM | – | 17.9 µM | – | 22.2 µM | – | 11.8 µM
COc1ccc2c(CN3CCC(C(=O)O)CC3)cc3cc4c(cc3c2c1)OCO4 | 2660 nM | 7.42 µM | 1480 nM | 3 µM | 1400 nM | 8.78 µM | – | – | 2.51 µM | 39.4 µM | 2.28 µM | 6.02 µM | 2440 nM | 7.8 µM | 3.05 µM | 9.73 µM
O=C(c1ccccc1)c1ccc(Oc2ccc([N+](=O)[O-])cc2[N+](=O)[O-])cc1 | 1820 nM | 3.98 µM | 4570 nM | 22.6 µM | 3290 nM | 26.2 µM | 2510 nM | 6.53 µM | 4.36 µM | 23.7 µM | 7.03 µM | 36.7 µM | 2290 nM | 5.52 µM | 3.08 µM | > 100 µM
C=C(C)[C@@H]1CC[C@]2(C(=O)O)CC[C@]3(C)[C@H](CC[C@@H]4[C@@]5(C)C[C@@H](CC#Cc6ccc(C(F)(F)F)cc6)[C@H](O)C(C)(C)[C@@H]5CC[C@]43C)[C@@H]12 | – | – | 2080 nM | 4.58 µM | 2340 nM | > 100 µM | – | – | – | – | – | – | 2630 nM | > 100 µM | 2.75 µM | > 100 µM
COc1ccc2cc(-c3cc4c(oc3=O)-c3ccccc3OC4O)c(=O)oc2c1 (stereo not given) | 16400 nM | 36 µM | 15600 nM | 31.4 µM | 20200 nM | 34.7 µM | 17000 nM | 37.6 µM | 15.9 µM | 29.7 µM | 16.7 µM | 32.2 µM | 14900 nM | 29.8 µM | 50 µM | > 100 µM
Nc1nc(OCc2cc(Br)cs2)c2[nH]cnc2n1 | 29900 nM | > 100 µM | 28800 nM | 81.3 µM | 19900 nM | > 100 µM | 26800 nM | > 100 µM | 40.2 µM | > 100 µM | 29.3 µM | > 100 µM | 9940 nM | 79.6 µM | 28.5 µM | > 100 µM
O=C(/C(=C\c1ccc([N+](=O)[O-])cc1)S(=O)Cc1ccc(F)cc1)c1ccc(F)cc1 (stereo not given) | 1840 nM | 4.09 µM | 2200 nM | 5.47 µM | 1640 nM | 3.07 µM | 1770 nM | 3.31 µM | 1.58 µM | 3.13 µM | 1.8 µM | 3.66 µM | 2070 nM | 5.54 µM | 1.51 µM | 5.06 µM

Reference: PubChem BioAssay (NCI)
